Reference: patent publication US9492508B2, “Parathyroid hormone analogs and uses thereof” (The General Hospital Corporation, priority 2010, dated 2016)
Ends that are not written are not given here.

Experiments:
[1] = Solubility, in vitro precipitation assay (PBS pH 7.4 vs 10 mM acetic acid); type: physicochemical; conditions: PBS pH 7.4, 1 h room temperature, FIG. 16A
Protocol: The relative solubilities of SP-PTH-AAK (SEQ ID NO:4) and SP-PTH (SEQ ID NO:11) in different buffers were assessed in an in vitro precipitation assay. For each polypeptide, two vials, each containing 50 μg of lyophilized polypeptide powder, were prepared; one vial was reconstituted in 50 μl of PBS at pH 7.4; the other vial was reconstituted in 50 μl of 10 mM acetic acid (pH 2.9) to give final concentrations of 1.0 mg/ml […]. After one hour at room temperature, the vials were centrifuged at 15,000×g for 2 minutes. The supernatant was removed and the protein content assayed using the Pierce BCA assay (Thermo Fischer Scientific, Rockford, Ill.). For each polypeptide, the content of the PBS sample was expressed as percent of the content of the corresponding acetic acid sample.

PD PTH receptor = molecular target: T1, PD PTH receptor (Mus musculus, UniProt P41593, S489A/S491A/S492A/S493A/S495A/S501A/S504A); assay: Blood calcium and cAMP in knock-in mice with phosphorylation-deficient (PD) PTH receptor vs wild-type; type: in vivo; conditions: FIG. 19
T1 construct: endogenous in cells; host or cells: knock-in mice (in vivo)
T1 sequence (P41593 27-591 S489A/S491A/S492A/S493A/S495A/S501A/S504A): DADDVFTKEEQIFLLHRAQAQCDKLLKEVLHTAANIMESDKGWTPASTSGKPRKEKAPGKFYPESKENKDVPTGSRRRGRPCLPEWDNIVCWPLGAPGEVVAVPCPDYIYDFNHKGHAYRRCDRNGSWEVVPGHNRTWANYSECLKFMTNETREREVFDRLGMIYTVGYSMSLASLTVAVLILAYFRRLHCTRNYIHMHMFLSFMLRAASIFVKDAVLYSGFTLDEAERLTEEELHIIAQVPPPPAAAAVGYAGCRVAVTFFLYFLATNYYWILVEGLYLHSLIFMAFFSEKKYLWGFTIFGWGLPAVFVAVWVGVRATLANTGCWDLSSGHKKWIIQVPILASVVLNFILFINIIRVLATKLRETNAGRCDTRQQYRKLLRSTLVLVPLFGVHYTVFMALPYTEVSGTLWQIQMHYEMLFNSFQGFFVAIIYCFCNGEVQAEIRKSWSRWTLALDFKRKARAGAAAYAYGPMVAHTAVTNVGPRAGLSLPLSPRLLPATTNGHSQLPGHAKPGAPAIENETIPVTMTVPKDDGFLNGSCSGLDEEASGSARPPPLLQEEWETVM
Protocol: The activity of SP-PTH-AAK (SEQ ID NO:4) was tested in “knock-in” mice that express a PD PTH receptor in place of the wild-type PTH receptor (Bounoutas et al., Endocrinology 147: 4674, 2006).
Blood cAMP levels were also compared between the two types of mice.

[2] = Plasma concentration in cynomolgus monkey after intravenous injection; type: in vivo; conditions: male, 1 nmol/kg intravenous
Protocol: FIG. 11B is a graph showing plasma concentration of SP-PTH (SEQ ID NO:11) in monkey following intravenous injection of 1 nmol/kg.
The effects of the SP-PTH (SEQ ID NO:11) and SP-PTH-AAK (SEQ ID NO:4) (“SP-AAK”) on serum and urinary calcium and phosphate levels were tested in cynomolgus monkeys. Briefly, three- or four-year-old, male cynomolgus monkeys (HAMRI Co., Ltd., Ibaraki, Japan) were measured for their body weight. Blood was collected into tubes. Monkeys received intravenous or subcutaneous administration of each polypeptide at a dose of 0.3 ml/kg. Polypeptide concentrations in stock solution were adjusted by dilution with 25 mmol/L phosphate-citrate buffer/100 mmol/L NaCl/0.05% Tween 80 (pH.5.0) (PC-buffer). All polypeptides were allowed to stand on ice immediately before administration. Polypeptides were administered to groups of three monkeys each respectively. At 1, 2, 4, and 8 hours after administration, blood was collected by saphenous vein to monitor the time course of calcium and phosphorus levels (FIG. 11A).

solubility in PBS pH 7.4 (percent of acetic acid sample), in words [1] | half-life [2] [min] | Substance | blood calcium level in PD mice (PD PTH receptor)
solubility similar to hPTH(1-34)NH2 | – | AVAEIQLMHQRAKWIQDARRRAFLHKLIAEIHTAEI-OH [SP-PTH-AAK, [Ala^1,3,12,18,22,Gln^10,Arg^11,Trp^14,Lys^26]PTH(1-14)/PTHrP(15-36)] | reduced blood calcium level for at least six hours after injection
– | ~4 | AVAEIQLMHQRAKWIQDLRRRFFLHHLIAEIHTAEI-OH [SP-PTH, [Ala^1,3,12,Gln^10,Arg^11,Trp^14]PTH(1-14)/PTHrP(15-36)] | –
